Data as given in PMC12059926, “Development and Biological Assessment of Thiazole-Based Pyridines for Targeted Therapy in Lung Cancer” (ACS Omega, 2025).
In brackets after ≈: the same amount, converted by molar mass.

Legend:
A549 cells [1] = experiment: Annexin V-FITC/propidium iodide apoptosis detection by flow cytometry; assay type: cell-based, human; details: IC50 dose, 24 h
Procedure: To determine whether the antiproliferative effects of the compounds on the A549 cell line proceed through the apoptotic or necrotic pathway, the assay was performed with Annexin V-FITC/propidium iodide dyes in a flow cytometry device. […] At least 10,000 cells were analyzed, and quadrant analysis was performed. The results are presented as early apoptotic cells, late apoptotic cells, viable cells, and necrotic cells in Table 3, and as a diagram in Figure 1. In control cells, the number of viable cells was 92.04%, necrotic cells were 1.16%, early apoptotic cells were 3.43%, and late apoptotic cells were 3.28%. […] Among the compounds, 2m was the most apoptosis-inducing compound, with 14.99% early apoptotic and 10.63% late apoptotic cell percentages. […] This compound was followed by compound 2c with a 13.79% early apoptotic cells and 4.03% late apoptotic cells. Among the compounds, compound 2o induced early apoptosis the least (1.87%) and necrosis the most (3.10%). […] Nonapoptotic cell death methods, such as necroptosis and pyroptosis, can be considered for the aforementioned compounds.
The compounds were treated with A549 cells at IC50 doses, and early and late apoptosis, necrosis, and viable cell ratios were determined as percentages. Cells were seeded at 37 °C in humidified air containing 5% CO2 with 10^5 cells/plate in each well. A549 cells were collected, washed twice with ice-cold PBS, and resuspended in 100 μL of binding buffer. Five μL (5 μg/mL) of Annexin V-FITC and PI were added to the cells and incubated for 15 min in the dark at room temperature (20–25 °C). Then, 400 μL of binding buffer was added to the mixture samples and analyzed on a flow cytometer. Quadrant analyses were also presented.[41] Compounds 2a, 2b, 2c, 2j, 2m, and 2o, with a satisfactory cytotoxic profile, were examined via flow cytometry to assess the apoptosis/necrosis cell ratio using previously published procedures.[42]
(§1) The apoptotic results (Annexin V-FITC, Caspase 3, JC-1) were evaluated by flow cytometry using FACS Diva Version 6.1.1. software, and the apoptotic cells were determined as the percentage of cells.

[2] = system: L929 (mouse fibroblast cell line); experiment: MTT cytotoxicity assay on L929 healthy cells; assay type: cell-based; details: mean ± SD
Procedure: (§2) The synthesized final compounds (2a–2o) were initially evaluated for their cytotoxic effects to assess their anticancer activity against A549 lung cancer cells. The healthy cell line L929 (mouse fibroblast cell line) was also used to determine the selective antiproliferative properties of the compounds.
(§3) The human lung cancer cell line A549 and mouse fibroblast cell line L929 were used to evaluate the cytotoxicity of the compounds. Cells propagated under the specified conditions were cultured in 96-well plates at 5 × 10^3 cells/well. […] At the end of the incubation period, cell viability was determined by measuring the absorbance of the purple color formed by the breakdown of the MTT dye at 540 nm. Half-maximal inhibitory concentrations (IC50) were determined based on the tested concentrations of the compounds. The tests were triplicated.[38] The MTT assay for cytotoxicity of compounds was determined according to previously published procedures.[39],[40]
(§4) The concentration that inhibits 50% of the cell population was calculated as IC50 using GraphPad Prism 9.0 statistical software program, and standard deviation values were analyzed. Data are expressed as mean ± SD. Comparisons were made using one-way ANOVA for continuous variables with normal distribution, and Tukey’s test was used for post hoc analysis of group differences. p < 0.05 was considered statistically significant.
(§5) The cell viability value of the control group was considered 100%, and all viability values were calculated using the formula below. The experiment was performed in 3 replicates. [drawing 2]

[3] = system: A549 lung cancer cell line; experiment: MTT cytotoxicity assay on A549 lung cancer cells; assay type: cell-based, human; details: for IC50: Homo sapiens, A549 cells, MTT, mean ± SD
Procedure: as §2, §3, §4, §5

A549 cells [4] = experiment: Mitochondrial membrane potential (JC-1) by flow cytometry; assay type: cell-based, human; details: IC50 dose, JC-1
Excerpt: The mitochondrial membrane potential provides information about the state of electrons during ATP production through oxidative phosphorylation, which is essential for cellular viability. Mitochondrial dysfunction occurs when this electrical regulation is disturbed and can occur in various diseases and the process of apoptosis.[23] […] Compounds 2m, 2g, and 2c followed this, with depolarization levels exceeding 21%. The mitochondrial dysfunction in compound 2m can be considered a contributing factor to apoptosis.
Cell staining with JC-1 was performed according to the manufacturer’s recommendations for the BD , Pharmingen Flow Cytometry Kit. […] Compounds were applied at IC50 doses of no more than 1 × 10^6/mL per well in 6-well plates. After treatment, each cell suspension was transferred to a 15 mL polystyrene centrifuge tube, the cells were centrifuged at 400g for 5 min, and the supernatant was removed. 0.5 mL of freshly prepared working solution was added to each pellet, and the solution was vortexed. The test cells were soaked in JC-1 working solution at 37 °C for 10–15 min, and the cells were washed twice. After centrifugation at 400g for 5 min, each cell pellet was suspended in 0.5 mL of 1X assay buffer and vortexed. The cells were then analyzed by flow cytometer.
as §1

MMP-9 enzyme = target: T1, MMP-9 enzyme (Homo sapiens, UniProt P14780); experiment: MMP-9 enzyme inhibition, colorimetric kit; assay type: biochemical; details: for inhibition at 100 µM: compounds at 100 μM, mean ± SD
T1 construct: purchased Enzo Life Sciences Inc. (Farmingdale, NY, USA)
T1 sequence (P14780 107-444 limits assumed): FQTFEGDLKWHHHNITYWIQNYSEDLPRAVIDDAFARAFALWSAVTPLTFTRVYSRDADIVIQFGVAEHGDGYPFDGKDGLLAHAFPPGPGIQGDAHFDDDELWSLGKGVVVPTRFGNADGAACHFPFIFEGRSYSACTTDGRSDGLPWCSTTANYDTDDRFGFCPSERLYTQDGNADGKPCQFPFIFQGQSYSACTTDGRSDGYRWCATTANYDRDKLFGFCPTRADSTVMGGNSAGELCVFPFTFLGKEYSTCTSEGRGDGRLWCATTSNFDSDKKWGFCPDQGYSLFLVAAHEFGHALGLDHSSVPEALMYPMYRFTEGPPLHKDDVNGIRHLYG
Procedure: Compounds (2a–2o) were tested to determine their MMP-9 enzyme inhibition potential. The compounds were tested at a concentration of 100 μM, and the standard molecule NNGH at a concentration of 1.3 μM.
MMP-9 inhibition was assessed using a colorimetric kit from Enzo Life Sciences Inc. (Farmingdale, NY, USA), following procedures similar to those described in previous studies.[25],[26] A thiopeptide was used as a chromogenic substrate (Ac-PLG-[2-mercapto-4-methyl-pentanoyl]-LG-OC2H5). 2-Nitro-5-thiobenzoic acid, formed by the reaction of the sulfhydryl group produced as a result of hydrolysis of the thioester by the MMP-9 enzyme and then reaction with DTNB [5,5′-dithiobis(2-nitrobenzoic acid), Ellman’s reagent], gives absorbance at 412 nm in a microplate reader (BioTek, PowerWave, Gen5 software, Winooski, VT, USA). Based on these absorptions, MMP-9 inhibition concentrations were determined. The assays were performed in triplicate. NNGH (N-isobutyl-N-(4-methoxyphenylsulfonyl)glycyl hydroxamic acid) was used as a control inhibitor. Data were shown as mean ± SD. The inhibitor % remaining activity of MMPs was calculated using the following equation:
Inhibitor% activity remaining = (V inhibitor/V control) × 100.
The inhibition (percent) of MMPs was calculated using the following equation: [drawing 1]

caspase-3 in A549 cells = experiment: Caspase-3 activation; assay type: cell-based, human; details: 24 h
Excerpt: Caspases can take part in the cell death mechanism through both intrinsic and extrinsic pathways, with caspase-3 being the first enzyme activated in the apoptosis process.[24] Activation of the caspase-3 enzyme by the compounds, indicated as caspase-3 positive, and inhibition, indicated as caspase-3 negative, are presented in percentage terms in Table 5.
A Spectrofluorometric Caspase-3 assay kit (BD Pharmingen, Franklin Lakes, NJ) was used for determining Caspase-3 activation by measuring the caspase-3 or DEVD-cleaving activity. Initially, A549 cells at a concentration of 1 × 10^6 cells/mL underwent a washing process using phosphate-buffered saline (PBS). Subsequently, they were suspended in a cold solution known as cell lysis buffer and kept on ice for a duration of 30 min. […] In each reaction, a mixture of […] of diluted Ac DEVD-AMC (a synthetic tetrapeptide fluorogenic substrate used to measure caspase-3 activity) and 0.2 mL of 1x HEPES buffer was added to a well. Then, […] of cell lysate was introduced into each well/reaction. The reaction mixtures were incubated at 37 °C for 1 h. The amount of AMC released from Ac-DEVD-AMC was measured by using a microplate reader (PerkinElmer/Victor/X3) with an excitation wavelength of 380 nm and an emission wavelength of 460 nm. Apoptotic cell lysates containing active caspase-3 produced significant emissions compared to controls. In addition, the AMC emission of nonapoptotic control cell lysates was taken as 100%, and the emission of other cell lysates was measured relative to the emission of control cells. All experiments were repeated in duplicate. Active compounds, which are the most cytotoxic compounds, were evaluated for caspase-3 activation using previously published procedures.[40],[44]
as §1

| SMILES | Q1-LL viable cells (A549 cells [1]) | Q1-LR early apoptotic cells (A549 cells [1]) | Q1-UL necrotic cells (A549 cells [1]) | Q1-UR late apoptotic cells (A549 cells [1]) | IC50 [2] | IC50 [3] | % Mitochondrial membrane polarized cells (A549 cells [4]) | inhibition at 100 µM (MMP-9 enzyme) | % Caspase-3 negative cells (caspase-3 in A549 cells) | % Caspase-3 positive cells (caspase-3 in A549 cells) | SI: selectivity index ([3]; L929 versus A549) | MMP-9 inhibition, result in words (MMP-9 enzyme; compared with 2f) |
| --- | --- | --- | --- | --- | --- | --- | --- | --- | --- | --- | --- | --- |
| CS(=O)(=O)c1ccc(-c2csc(NN=Cc3cccnc3)n2)cc1 [Compound 2g, 4-(4-(Methylsulfonyl)phenyl)-2-(2-(pyridin-3-ylmethylene)hydrazinyl)thiazole] | 88.98% | 7.20% | 0.98% | 2.84% | 56.4 ± 0.59 µg/mL (≈ 157 µM) | 8.4 ± 0.34 µg/mL (≈ 23.4 µM) | 76.68% | 8.63 ± 1.32% | 73.16% | 0.38% | – | – |
| C(=NNc1nc(-c2ccc(-c3ccccc3)cc2)cs1)c1ccncc1 [Compound 2m, 4-([1,1’-Biphenyl]-4-Yl)-2-(2-(pyridin-4-ylmethylene)hydrazinyl)thiazole] | 73.32% | 14.99% | 1.07% | 10.63% | 31.2 ± 0.55 µg/mL (≈ 87.7 µM) | 12.1 ± 0.43 µg/mL (≈ 33.8 µM) | 75.72% | 9.4 ± 1.22% | 69.82% | 0.86% | – | – |
| C(=NNc1nc(-c2ccc(-c3ccccc3)cc2)cs1)c1ccccn1 [Compound 2c, 4-([1,1’-Biphenyl]-4-yl)-2-(2-(pyridin-2-ylmethylene)hydrazinyl)thiazole] | 81.54% | 13.79% | 0.64% | 4.03% | 125 ± 0.64 µg/mL (≈ 351 µM) | 10.1 ± 0.38 µg/mL (≈ 28.4 µM) | 79.61% | 23.1 ± 2.08% | 91.76% | 5.95% | – | – |
| COc1ccc(OC)c(-c2csc(NN=Cc3ccncc3)n2)c1 [Compound 2k, 4-(2,5-Dimethoxyphenyl)-2-(2-(pyridin-4-ylmethylene)hydrazinyl)thiazole] | – | – | – | – | 8.59 ± 0.32 µg/mL (≈ 25.2 µM) | 6.07 ± 0.31 µg/mL (≈ 17.8 µM) | – | – | – | – | 1.42 | less active than 2f (2,5-dimethoxypehnyl) or inactive |
| Oc1ccc(-c2csc(NN=Cc3cccnc3)n2)cc1O [Compound 2i, 4-(2-(2-(Pyridin-3-ylmethylene)hydrazinyl)thiazol-4-yl)benzene-1,2-diol] | – | – | – | – | > 250 µg/mL | 7.2 ± 0.95 µg/mL (≈ 23.1 µM) | – | 40.6 ± 3.01% | – | – | – | – |
